What is called EC50 is the concentration that produces a half-maximal response. Low readings indicate an effect from little substance, high ones a need for much substance. As a reminder, the inhibition is the share of the control response that was lost under treatment.

The values below come from patent publication US20180369244A1, “BTK Inhibitors to Treat Solid Tumors Through Modulation of the Tumor Microenvironment” (Acerta Pharma B.V., priority 2014, published 2018).

The test system of series [1] is BCR activation markers CD69 and CD86. The experiment in a line: In vivo potency, CD69 and CD86 expression after IgM stimulation. Also noted: species or system mice. The following applies: oral gavage, 3 h post-dose. From the text:
CD86 and CD69 are cell surface proteins that are BCR activation markers. […] BCR was stimulated with IgM and the expression of activation marker CD69 and CD86 are monitored by flow cytometry and to determine EC50 values.

Series [2] relates to pancreatic cancer in KPC mice. The experiment in a line: KPC pancreatic cancer model (spontaneous tumors). The following applies: 15 mg/kg BID oral. The series is classed as in vivo. The protocol: The KPC mouse model recapitulates many of the molecular, histopathologic, and clinical features of human disease (Westphalen and Olive, Cancer J. 2012, 18, 502-510). Combination therapy with gemcitabine was also evaluated in this model. Mice were enrolled after identification of spontaneously appearing tumors in the pancreas that were >100 mm^3 (as assessed by high-resolution ultrasonography).

The test system of a further series is primary CLL cells. Description: Rituximab ADCC chromium release assay. It counts as cell-based, human. To be noted: 1 μM; primary CLL samples. As for the experimental part: Cell culture conditions were as follows. Cell lines Raji and DHL-4 were maintained in […] supplemented with fetal bovine serum, L-glutamine, 2-mercaptoethanol and penicillin-streptomycin at 37° C. in a humidified incubator. The HER18 cells were maintained in DEM supplemented with fetal bovine serum, penicillin-streptomycin and. Prior to assay, HER18 cells were harvested using trypsin-EDTA, washed with phosphate-buffered saline (PBS) containing 5% serum and viable cells were counted. For culture of primary target cells, peripheral blood from CLL patients was subject to density centrifugation to obtain peripheral blood mononuclear cells (PBMC). Cell preparations were washed and then subject to positive selection of CD5+CD19^+ CLL cells using magnetic beads (MACS, Miltenyi Biotech). Cell preparations were used fresh after selection. NK cells from CLL patients and healthy volunteers were enriched from peripheral blood collected in sodium citrate anti-coagulant tubes and then subject to density centrifugation. Removal of non NK cells was performed using negative selection by MACS separation. […]
ADCC assays were performed as follows. […] The effect of NK cell natural cytotoxicity was assessed in wells containing no rituximab. […] Supernatants were harvested and ^51Cr release was measured by liquid scintillation counting. […]

The target in another series is CYP3A4 (Homo sapiens, UniProt P08684). Description: Loss of parent drug as catalyzed by CYPs. The series is classed as in vitro ADME. From the text: No unique human metabolite was identified. Preliminary evaluations of metabolism in the plasma, bile, and urine of rats, dogs, and monkeys indicated metabolic processes of oxidation, glutathione binding, and hydrolysis.
Sequence of CYP3A4 (P08684 whole entry): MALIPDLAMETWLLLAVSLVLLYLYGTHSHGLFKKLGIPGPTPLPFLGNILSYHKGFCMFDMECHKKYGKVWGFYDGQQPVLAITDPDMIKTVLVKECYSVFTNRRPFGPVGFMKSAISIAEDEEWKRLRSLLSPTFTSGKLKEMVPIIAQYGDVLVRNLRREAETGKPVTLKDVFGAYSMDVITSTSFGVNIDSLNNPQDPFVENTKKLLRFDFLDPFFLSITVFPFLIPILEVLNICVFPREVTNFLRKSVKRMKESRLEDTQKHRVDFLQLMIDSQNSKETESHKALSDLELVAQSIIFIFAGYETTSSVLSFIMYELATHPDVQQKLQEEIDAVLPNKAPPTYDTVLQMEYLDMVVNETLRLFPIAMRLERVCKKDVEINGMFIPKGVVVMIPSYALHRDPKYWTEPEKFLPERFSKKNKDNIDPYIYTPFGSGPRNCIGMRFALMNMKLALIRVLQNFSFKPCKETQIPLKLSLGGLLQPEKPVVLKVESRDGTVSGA

Series [3] in a line: GLP safety pharmacology in rats (functional observation battery, respiratory function). It counts as in vivo. To be noted: doses through 300 mg/kg. An excerpt: (§1) Formula (II) was well tolerated in standard in vivo Good Laboratory Practices (GLP) studies of pharmacologic safety.
Series [4] can be described thus: Cardiovascular function study in telemeterized beagle dogs. The series is classed as in vivo. The following applies: single doses through 30 mg/kg.
Text: as §1

In series [5] the test system is NK cells. Description: Antibody-dependent NK cell degranulation (CD107a flow cytometry). The series is classed as cell-based, human.
Description: Cell culture conditions were as follows. […] The HER18 cells were maintained in DEM supplemented with fetal bovine serum, penicillin-streptomycin and. Prior to assay, HER18 cells were harvested using trypsin-EDTA, washed with phosphate-buffered saline (PBS) containing 5% serum and viable cells were counted. […] Cell preparations were washed and then subject to positive selection of CD5+CD19^+ CLL cells using magnetic beads (MACS, Miltenyi Biotech). Cell preparations were used fresh after selection. […] Removal of non NK cells was performed using negative selection by MACS separation. Freshly isolated NK cells were washed three times, enumerated, and then used immediately for ADCC assays.
Lytic granule release was determined as follows. […] Degranulation was evaluated via by flow cytometery by externalization of CD107a, a protein normally present on the inner leaflet of lytic granules, and gating on NK cells (CD3-CD16^+ lymphocytes). The percentage of CD107a positive NK cells was quantified by comparison with a negative control (isotype control, unstained cells/FMO). Control cultures (NK cells cultured without target cells, or NK, target cell co-cultures in the absence of appropriate monoclonal antibody) were also evaluated; all experiments were performed in triplicate.
The next series has as its target T1, BTK (Mus musculus, UniProt P35991).
T1 construct: endogenous in cells; host or cells: granulocytic and monocytic MDSCs from tumor-bearing PDA mice
Description: Molecular probe assay, BTK occupancy in MDSCs of tumor bearing PDA mice. It counts as in vivo. To be noted: 15 mg/kg BID, Day 8, 4 hours post dose. An excerpt:
A molecular probe assay was used to calculate the percent irreversible occupancy of total BTK.

The test system of series [6] is NK cells. Description: Antibody-dependent NK cell IFN-γ secretion (ELISA). The series is classed as cell-based, human. To be noted: 1 μM. (In an ELISA, binding on a coated surface is turned into a signal by an enzyme label.)
Description: The HER18 cells were maintained in DEM supplemented with fetal bovine serum, penicillin-streptomycin and. Prior to assay, HER18 cells were harvested using trypsin-EDTA, washed with phosphate-buffered saline (PBS) containing 5% serum and viable cells were counted. […] NK cells from CLL patients and healthy volunteers were enriched from peripheral blood collected in sodium citrate anti-coagulant tubes and then subject to density centrifugation. Removal of non NK cells was performed using negative selection by MACS separation. Freshly isolated NK cells were washed three times, enumerated, and then used immediately for ADCC assays.
Cytokine secretion was determined as follows. Rituximab and trastuzumab-dependent NK-cell mediated degranulation and cytokine release were assessed using lymphoma and HER2+ breast cancer cell lines (DHL-4 and HER18, respectively). […] NK cells from healthy donors were enriched as described above and then added to the target cells and incubated for 4 hours at 37° C. Triplicate cultures were performed on NK cells from donors. After incubation, supernatants were harvested, centrifuged briefly, and then analyzed for interferon-γ using an enzyme-linked immunosorbent assay (ELISA).
The next series deals with B cell receptor. The experiment in a line: Whole blood B cell receptor signalling, CD69 on CD19+ B cells. The series is classed as cell-based. To be noted: 2 h incubation, anti-human IgD 18 h. The protocol:
Blood from four healthy donors was incubated for 2 hours with the compounds shown over a concentration range, and then stimulated with anti-human IgD [10 μg/mL] for 18 hours. The mean fluorescent intensity (MFI) of CD69 (and CD86, data not shown) on gated CD19+ B cells was measured by flow cytometry. MFI values were normalized so that 100% represents CD69 level in stimulated cells without inhibitor, while 0% represents the unstimulated/no drug condition. […]

In the next series the test system is EGFR. The experiment in a line: EGF-induced EGFR phosphorylation in A431 cells (phosphoflow). It counts as cell-based, human. As for the experimental part: Phosphoflow cytometry was performed with p-EGFR (Y1069). MFI values were normalized so that 100% represents the p-EGFR level in stimulated cells without inhibitor, while 0% represents the unstimulated/no drug condition.

Series [7] relates to human platelet-mediated thrombosis. The following applies: mouse, in vivo. The protocol: Injury to the vessel wall of arterioles ([…] diameter) was performed using a pulsed nitrogen dye laser (440 nm, Photonic Instruments) applied through a 20× water-immersion Olympus objective (LUMPlanF1, 0.5 numerical aperature (NA)) of a Zeiss Axiotech vario microscope. […] The extent of thrombus formation was assessed for 2 minutes after injury and the area (μm^2) of coverage determined (Image IQ, Andor Technology).
The BTK inhibitor-treated human platelets were fluorescently labeled and infused continuously through a catheter inserted into the femoral artery.

The subject of series [8] is NK cells. Description: Whole blood NK cell degranulation/ADCC assay, MEC-1 cells opsonised with obinutuzumab. It counts as cell-based, human. The following applies: 1 h pretreatment, obinutuzumab 1 μg/mL, 4 h.
Description: Degranulation in whole blood was performed as follows. […] Exponentially growing cells were used. […] A white blood cell (WBC) count of whole blood was performed. […] 170 μL aliquots of unmanipulated whole blood were incubated with 10 μL BTK inhibitors or X-VIVO 15 medium for one hour into a plate. […] The samples were placed in a 5% CO2 incubator for 4 hours at 37° C.
After 4 hours, the samples were mixed gently and 50 μL aliquots were removed from each well and placed in fluorescence-activated cell sorting (FACS) test tubes. A 20 μL aliquot of anti-CD56-APC antibody and anti-CD107a-PE antibody was added. The samples were incubated for 20 minutes at room temperature in the dark. An aliquot of 2 mL of FACS lysing solution (BD Biosceinces) was added. The samples were again incubated for 5 minutes, and then centrifuged at 2000 rpm for 5 minutes. Supernatant was discarded and the cell pellet was resuspended in 500 μL of PBS. The samples were analyzed on the flow cytometer for CD107a^+ NK cells (CD56+).
Another series has as its system CD8+ T cells. The experiment in a line: Cytotoxic T cell (CTL) assay. It counts as cell-based. The following applies: 500 nM. As for the experimental part:
CD8^+ T cells have at least two primary effector functions: (1) produce large amounts of IFN-γ (which activates macrophages), and (2) cytolytic activity. […] The targets were B lymphoblasts from lipopolysaccharide (LPS) treated cultures. The assay was performed by incubating different ratios of effectors:targets for 4 hours.

Some results are limits rather than exact numbers.

T1 sequence (P35991 whole entry): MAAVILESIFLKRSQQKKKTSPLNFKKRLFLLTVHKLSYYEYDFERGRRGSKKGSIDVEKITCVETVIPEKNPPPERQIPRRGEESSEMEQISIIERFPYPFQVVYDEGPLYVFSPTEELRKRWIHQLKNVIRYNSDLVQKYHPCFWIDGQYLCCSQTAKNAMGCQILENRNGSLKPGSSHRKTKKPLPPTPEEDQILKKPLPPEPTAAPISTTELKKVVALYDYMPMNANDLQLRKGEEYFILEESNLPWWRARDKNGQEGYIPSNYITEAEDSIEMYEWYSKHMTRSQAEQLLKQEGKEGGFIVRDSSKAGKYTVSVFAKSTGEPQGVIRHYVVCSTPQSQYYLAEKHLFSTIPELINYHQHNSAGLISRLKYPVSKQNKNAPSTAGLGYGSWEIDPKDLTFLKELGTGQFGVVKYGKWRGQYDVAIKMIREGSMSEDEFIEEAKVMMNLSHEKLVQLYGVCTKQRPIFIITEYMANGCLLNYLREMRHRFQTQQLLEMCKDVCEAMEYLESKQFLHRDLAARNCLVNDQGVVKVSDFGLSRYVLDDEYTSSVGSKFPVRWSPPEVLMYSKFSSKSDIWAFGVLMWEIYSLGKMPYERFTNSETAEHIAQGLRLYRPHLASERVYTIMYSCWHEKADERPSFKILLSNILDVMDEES

Consider `CC#CC(=O)N1CCC[C@H]1c1nc(-c2ccc(C(=O)Nc3ccccn3)cc2)c2c(N)nccn12` [Formula (II), (S)-4-(8-amino-3-(1-(but-2-ynoyl)pyrrolidin-2-yl)imidazo[1,5-a]pyrazin-1-yl)-N-(pyridin-2-yl)benzamide], for which, in [1], the “in vivo potency, inhibition of activation markers” value is “more potent at inhibiting expression of activation makers than ibrutinib”. Moreover, in series [2], the “CD8+ cells in tumor tissues” value is recorded as “significant increase”; the “immunosuppressive TAMs, MDSCs and Tregs in tumor tissues” value was “significantly reduced”; the “pancreatic cancer growth and animal survival” value was “substantially slowed pancreatic cancer growth and increased animal survival”; the “survival at day 14” value is listed as 6/6. The “survival at day 28” value in [2] is 5/6. For the same compound, the “average tumor volume at day 28” value in series [2] (predose average 165 mm^3) amounted to 272 mm^3. Moreover, the “ex vivo NK cell activity against autologous tumor cells” value with primary CLL cells was “not inhibited”. In addition, on CYP3A4, the CYP metabolism entry was “metabolized by CYP3A4”. Besides, in [3], the “functional observation battery: neurobehavioral effects, body temperature” value was “no adverse effects” and the respiratory function entry is “no treatment-related adverse effects”. In series [4], the “body temperature, cardiovascular, ECG (including QT interval) parameters” value is “no meaningful changes”. Further, the “inhibition of trastuzumab-stimulated NK cell degranulation” value in the series on NK cells [5] (1 μM, HER18 target cells) is “no inhibitory effect”. Besides, the “reduction of rituximab-stimulated NK cell degranulation” value in the series on NK cells [5] (DHL-4 target cells) is less than 2%. Also, the “irreversible BTK occupancy in granulocytic and monocytic MDSC” value at BTK was “Complete BTK occupancy”. Also, in the series with NK cells [6], the “IFN-γ or NK cell degranulation” value is on record as “did not inhibit”. Moreover, in the series with NK cells [6] (HER18 target cells), the “inhibition of trastuzumab-stimulated NK cell cytokine release” value was “no inhibitory effect”. Further, in the series with B cell receptor, a half-maximal effect (EC50) was put at 8.2 nM. For the same compound, the “inhibition of in vitro EGFR phosphorylation” value with EGFR (10 μM) is given as “no inhibition”. The inhibition at 10 µM in the series with EGFR (Homo sapiens, A-431, read-out: EGF-induced p-EGFR inhibition) came to 7%. In addition, the “effect on thrombus formation” value in [7] was “does not interfere with thrombus formation”. The “reduction of obinutuzumab-stimulated NK cell degranulation” value with NK cells [8] is reported as “minimal effect”. Moreover, in the series on CD8+ T cells, the “CD8+ T cell function as % cytotoxicity” value is “no effect on CD8^+ T cell function”.
